# Test results as given in ChEMBL document CHEMBL5390236, “Biological production of epicoccamide-aglycone and its cytotoxicity” (Bioorg Med Chem Lett, 2023).
# Active and inactive are the calls of the source. The calls are words filed in the database; no cut-off is given here.
# Assays:
# HeLa [1] = test: Cytotoxicity against human HeLa cells assessed as reduction in cell population to midpoint between values of non-treated control and lowest population by MTT assay; assay type: functional, cell-based
# HeLa [2] = test: Cytotoxicity against human HeLa cells assessed as reduction in cell population by MTT assay relative to control; assay type: functional
# HeLa [3] = test: Cytotoxicity against human HeLa cells assessed as reduction in cell population to half by MTT assay; assay type: functional, cell-based
# [4] = Cytotoxicity against human WI-38 cells assessed as inhibition in cell growth at 100 uM by MTT assay relative to control; assay type: toxicity, cell-based
# Staphylococcus aureus = test: Antibacterial activity against Staphylococcus aureus; assay type: functional
# [5] = Cytotoxicity against human WI-38 cells assessed as reduction in cell population by MTT assay relative to control; assay type: toxicity, cell-based
# Escherichia coli = test: Antibacterial activity against Escherichia coli; assay type: functional, organism-based
# Cryptococcus neoformans = test: Antifungal activity against Cryptococcus neoformans assessed as reduction in fungal growth at 80 ug by paper disk assay; assay type: functional, organism-based; conditions: dose 80.0 µg
# HeLa [6] = test: Cytotoxicity against human HeLa cells assessed as inhibition in cell growth at 200 uM by MTT assay; assay type: functional, cell-based
# HeLa [7] = test: Cytotoxicity against human HeLa cells assessed as relative cell population at 50 uM by MTT assay relative to control; assay type: functional
# Epicoccum nigrum [8] = test: Antifungal activity against Epicoccum nigrum deltaepcB assessed as reduction in fungal growth at 80 ug by paper disk assay; assay type: functional, organism-based; conditions: dose 80.0 µg
# Epicoccum nigrum [9] = test: Antifungal activity against wild type Epicoccum nigrum assessed as reduction in fungal growth at 80 ug by paper disk assay; assay type: functional, organism-based; conditions: dose 80.0 µg
# HeLa [10] = test: Cytotoxicity against human HeLa cells assessed as relative cell population at 100 uM by MTT assay relative to control; assay type: functional
# Saccharomyces cerevisiae = test: Antifungal activity against Saccharomyces cerevisiae assessed as reduction in fungal growth at 80 ug by paper disk assay; assay type: functional, organism-based; conditions: dose 80.0 µg
# [11] = Cytotoxicity against human WI-38 cells assessed as reduction in cell population to midpoint between values of non-treated control and lowest population by MTT assay; assay type: toxicity, cell-based
# [12] = Cytotoxicity against human WI-38 cells assessed as reduction in cell population to half by MTT assay; assay type: toxicity, cell-based
# HeLa [13] = test: Cytotoxicity against human HeLa cells assessed as inhibition in cell proliferation at 10 to 100 uM by MTT assay; assay type: functional, cell-based; conditions: dose 10-100 µM
# WI-38 = test: Cytotoxicity against human WI-38 cells assessed as inhibition in cell proliferation at 10 to 100 uM by MTT assay; assay type: toxicity, cell-based; conditions: wi-38, 100 µM, dose 10-100 µM
SMILES,MIC (Staphylococcus aureus) [µg/mL],EC50 (HeLa [1]) [µM],Emax (HeLa [2]) [%],IC50 (HeLa [3]) [µM],inhibition at 100 µM [4] [%],Emax [5] [%],Activity (Escherichia coli),Activity (Cryptococcus neoformans),inhibition (HeLa [6]),Activity (HeLa [7]) [%],Activity (Epicoccum nigrum [8]),Activity (Epicoccum nigrum [9]),Activity (HeLa [10]) [%],IC50 (HeLa [3]; read-out: IC50) [µM],Activity (Saccharomyces cerevisiae),EC50 [11] [µM],IC50 [12] [µM],inhibition (HeLa [13]),Activity (WI-38)
COc1cccc2c1C(=O)c1c(O)c3c(c(O)c1C2=O)C[C@@](O)(C(=O)CO)C[C@@H]3O[C@H]1C[C@H](N)[C@H](O)[C@H](C)O1 [DOXORUBICIN],–,4.3,15,5.1,< 10,–,–,–,–,–,–,–,–,–,–,–,–,–,–
C[C@@H](CCCCCCCCC(=O)CCCCCCCCC[C@H](O)CO[C@@H]1O[C@H](CO)[C@@H](O)[C@H](O)[C@@H]1O)/C(O)=C1/C(=O)N[C@@H](Cc2ccc(O)cc2)C1=O,7.2,–,–,–,–,–,–,–,–,–,–,–,–,–,–,–,–,–,–
C[C@@H](CCCCCCCCCCCCCCO)C(=O)C1=C(O)N(C)[C@@H](C)C1=O,1,12,23,–,–,20,inactive,inactive,–,–,inactive,inactive,–,19,Active,9.1,15,Active,Toxic

# Now from value to compound, other results behind:
MIC (Staphylococcus aureus) [µg/mL],SMILES,EC50 (HeLa [1]) [µM],Emax (HeLa [2]) [%],IC50 (HeLa [3]) [µM],inhibition at 100 µM [4] [%],Emax [5] [%],Activity (Escherichia coli),Activity (Cryptococcus neoformans),inhibition (HeLa [6]),Activity (HeLa [7]) [%],Activity (Epicoccum nigrum [8]),Activity (Epicoccum nigrum [9]),Activity (HeLa [10]) [%],IC50 (HeLa [3]; read-out: IC50) [µM],Activity (Saccharomyces cerevisiae),EC50 [11] [µM],IC50 [12] [µM],inhibition (HeLa [13]),Activity (WI-38)
2.8,C[C@@H](CCCCCCCCC(=O)CCCCCCCCC[C@H](O)CO)/C(O)=C1/C(=O)N[C@@H](Cc2ccc(O)cc2)C1=O,–,–,–,–,–,–,–,–,–,–,–,–,–,–,–,–,–,–
64,C[C@@H](CCCCCCCCCCCCCCO[C@@H]1O[C@H](CO)[C@@H](O)[C@H](O)[C@@H]1O)C(=O)C1=C(O)N(C)[C@@H](C)C1=O,70,3.2,–,–,4.6,inactive,inactive,Active,88,inactive,inactive,14,76,Active,34,38,–,–
